Assay results: patent publication US10174001B2, “Crystals of 5-cyclopropyl-2-((1-(3-fluorobenzyl)-1H-indol-5-yl)amino)nicotinic acid” (FUJIFILM Toyama Chemical Co., Ltd., priority 2015, dated 2019)
Converted amounts (≈) assume the structure as drawn.

What was measured:
keratinocyte = details: cited from earlier work
[1] = Test Example 3: Hygroscopicity (rate of weight change and crystal form); type: physicochemical; details: for Stability (hygroscopicity test): 25° C., relative humidity of 75 or 97%
Description: The α-form crystal and the β-form crystal were preserved under the conditions of 25° C. and a relative humidity of 75 or 97%.
Sampling was carried out over time and the weights of crystals were measured to determine rates of weight changes. Additionally, crystal forms were measured by the infrared absorption spectrum.
Rate of weight change (%)=((B−A)/A)×100
A: Crystal weight before the test started
B: Crystal weight after the test started

[2] = Test Example 2: Physical Stability (mixed α/β crystals stirred in solvent, crystal form by infrared absorption spectrum); type: physicochemical
Description: The α-form crystal (1 part by weight) and the β-form crystal (1 part by weight) were mixed, suspended in a solvent (ethyl acetate/ethanol=5/1.5 parts by weight) and stirred at 26, 70 or 100° C.
Sampling was carried out over time and crystal forms were measured by the infrared absorption spectrum.

[3] = Test Example 1: Solubility in various organic solvents; type: physicochemical; details: for solubility at 24 h: organic solvent or mixture, thermodynamic from solid; for solubility at 24 h / Solubility: stirred for 24 hours
Description: The α-form crystal (about 100 mg) or the β-form crystal (about 100 mg) was suspended in various organic solvents (about 1 mL) and stirred for 24 hours. Impurities were filtered off using a membrane filter and the filtrate was analyzed by HPLC to determine the solubility.

[4] = Test Example 4: Stability (HPLC purity and crystal form on storage); type: physicochemical; details: for Purity (%): HPLC
Description: The α-form crystal and the β-form crystal were preserved under the conditions of 40 or 60° C. and a relative humidity of 75%.
Twelve weeks after the test started, the purity was measured by HPLC. Additionally, crystal forms were measured by the infrared absorption spectrum.
HPLC Measurement conditions
Measurement wavelength: 270 nm
Column: Ascentis Express C18, inner diameter 3.0 mm×length 150 mm
Column temperature: 40° C.
Mobile phase: 0.1% phosphoric acid/(acetonitrile/water=60/40) solution

Crystal form ([1]; 25° C. 75% RH, 0 hr) | Rate of weight change (%) ([1]; 25° C. 75% RH, 0 hr) | Crystal form ([1]; 25° C. 75% RH, 2 weeks) | Rate of weight change (%) ([1]; 25° C. 75% RH, 2 weeks) | Crystal form ([1]; 25° C. 75% RH, 4 weeks) | Rate of weight change (%) ([1]; 25° C. 75% RH, 4 weeks) | Crystal form ([1]; 25° C. 75% RH, 8 weeks) | Rate of weight change (%) ([1]; 25° C. 75% RH, 8 weeks) | Crystal form ([1]; 25° C. 75% RH, 12 weeks) | Rate of weight change (%) ([1]; 25° C. 75% RH, 12 weeks) | Crystal form ([1]; 25° C. 97% RH, 0 hr) | Rate of weight change (%) ([1]; 25° C. 97% RH, 0 hr) | Crystal form ([1]; 25° C. 97% RH, 2 weeks) | Rate of weight change (%) ([1]; 25° C. 97% RH, 2 weeks) | Crystal form ([1]; 25° C. 97% RH, 4 weeks) | Rate of weight change (%) ([1]; 25° C. 97% RH, 4 weeks) | Crystal form ([1]; 25° C. 97% RH, 8 weeks) | Rate of weight change (%) ([1]; 25° C. 97% RH, 8 weeks) | Crystal form ([1]; 25° C. 97% RH, 12 weeks) | Rate of weight change (%) ([1]; 25° C. 97% RH, 12 weeks) | Structure (SMILES) | further results
 |  |  |  |  |  |  |  |  |  |  |  |  |  |  |  |  |  |  |  | O=C(O)c1cc(C2CC2)cnc1Nc1ccc2c(ccn2Cc2cccc(F)c2)c1 [Compound A, 5-Cyclopropyl-2-((1-(3-fluorobenzyl)-1H-indol-5-yl)amino)nicotinic acid] | Antiproliferative activity on keratinocyte (keratinocyte): excellent antiproliferative activity on keratinocyte
α | 0.00 | α | 0.08 | α | 0.08 | α | 0.24 | α | 0.22 | α | 0.00 | α | 0.13 | α | 0.17 | α | 0.38 | α | 0.32 | O=C(O)c1cc(C2CC2)cnc1Nc1ccc2c(ccn2Cc2cccc(F)c2)c1 [α-Form crystal, 5-cyclopropyl-2-((1-(3-fluorobenzyl)-1H-indol-5-yl)amino)nicotinic acid] | Stability (hygroscopicity test) [1]: stable; Crystal transition ([2]; mixed crystals stirred at 26, 70 or 100° C.): transitioned to the β-form crystal; solubility at 24 h ([3]; 2-propanol): 3.5 mg/mL (≈ 8.72 mM); solubility at 24 h ([3]; acetone): 55 mg/mL (≈ 137 mM); solubility at 24 h ([3]; acetonitrile): 3.1 mg/mL (≈ 7.72 mM); solubility at 24 h ([3]; ethanol): 8.8 mg/mL (≈ 21.9 mM); solubility at 24 h ([3]; ethyl acetate): 19.7 mg/mL (≈ 49.1 mM); solubility at 24 h ([3]; isopropyl acetate): 11.5 mg/mL (≈ 28.6 mM); solubility at 24 h ([3]; methyl ethyl ketone): 63.1 mg/mL (≈ 157 mM); solubility at 24 h ([3]; methyl tert-butyl ether): 10.1 mg/mL (≈ 25.2 mM); Crystal form ([4]; 40° C. 75% RH, 0 hr): α; Purity (%) ([4]; 40° C. 75% RH, 0 hr): 99.4%; Crystal form ([4]; 40° C. 75% RH, 12 weeks): α; Purity (%) ([4]; 40° C. 75% RH, 12 weeks): 99.5%; Crystal form ([4]; 60° C. 75% RH, 0 hr): α; Purity (%) ([4]; 60° C. 75% RH, 0 hr): 99.4%; Crystal form ([4]; 60° C. 75% RH, 12 weeks): α; Purity (%) ([4]; 60° C. 75% RH, 12 weeks): 99.5%
β | 0.00 | β | 0.07 | β | 0.07 | β | 0.20 | β | 0.18 | β | 0.00 | β | 0.10 | β | 0.11 | β | 0.26 | β | 0.25 | O=C(O)c1cc(C2CC2)cnc1Nc1ccc2c(ccn2Cc2cccc(F)c2)c1 [β-Form crystal, 5-cyclopropyl-2-((1-(3-fluorobenzyl)-1H-indol-5-yl)amino)nicotinic acid] | Stability (hygroscopicity test) [1]: stable; Relative stability of crystal forms ([2]; concluded from crystal transition in suspension): more stable than the α-form crystal; Solubility ([3]; 2-Propanol): 3.0 mg/mL (≈ 7.47 mM); Solubility ([3]; Acetone): 48.9 mg/mL (≈ 122 mM); Solubility ([3]; Acetonitrile): 2.7 mg/mL (≈ 6.73 mM); Solubility ([3]; Ethanol): 6.8 mg/mL (≈ 16.9 mM); Solubility ([3]; Ethyl acetate): 16.8 mg/mL (≈ 41.8 mM); Solubility ([3]; Isopropyl acetate): 9.8 mg/mL (≈ 24.4 mM); Solubility ([3]; Methyl ethyl ketone): 55.3 mg/mL (≈ 138 mM); Solubility ([3]; Methyl tert-butyl ether): 8.1 mg/mL (≈ 20.2 mM); Relative stability of crystal forms ([3]; concluded from solubility): more stable than the α-form crystal; Solubility compared between crystal forms ([3]; various organic solvents): lower than the solubility of the α-form crystal; Crystal form ([4]; 40° C. 75% RH, 0 hr): β; Purity (%) ([4]; 40° C. 75% RH, 0 hr): 99.6%; Crystal form ([4]; 40° C. 75% RH, 12 weeks): β; Purity (%) ([4]; 40° C. 75% RH, 12 weeks): 99.7%; Crystal form ([4]; 60° C. 75% RH, 0 hr): β; Purity (%) ([4]; 60° C. 75% RH, 0 hr): 99.6%; Crystal form ([4]; 60° C. 75% RH, 12 weeks): β; Purity (%) ([4]; 60° C. 75% RH, 12 weeks): 99.7%
